In ChEMBL document CHEMBL1134824, “Beta-D-glycosylamidines: potent, selective, and easily accessible 1-glycosidase inhibitors” (Bioorg Med Chem Lett, 2001):

Columns and labels:
[1] = Compound was evaluated for the basicity, pKa of the conjugate acids; type: physicochemical
[2] = Compound was evaluated for the selective and competitive inhibition of Beta-galactosidase from Aspergillus oryzae at 2.5 mM; NI = No inhibition
[3] = Compound was evaluated for the selective and competitive inhibition of Alpha-glucosidase from Bacillus sp. at 2.5 mM; NI = No inhibition
[4] = Compound was evaluated for the selective and competitive inhibition of Alpha-glucosidase from Aspergillus niger at 2.5 mM; NI = No inhibition
[5] = Compound was evaluated for the selective and competitive inhibition of beta-glucosidase from Aspergillus niger
[6] = Compound was evaluated for the selective and competitive inhibition of Alpha-glucosidase from Yeast at 2.5 mM; parameters: species or system Saccharomyces cerevisiae
[7] = Compound was evaluated for the selective and competitive inhibition of Beta-galactosidase from Escherichia coli at 2.5 mM; NI = No inhibition
[8] = Compound was evaluated for the selective and competitive inhibition of Beta-glucosidase from Almond; parameters: species or system Prunus dulcis
[9] = Compound was evaluated for the selective and competitive inhibition of Beta-galactosidase from Aspergillus pulverulentus
[10] = Compound was evaluated for the selective and competitive inhibition of Beta-glucosidase from Trichoderma viride
[11] = Compound was evaluated for the selective and competitive inhibition of Beta-galactosidase from Escherichia coli
[12] = Compound was evaluated for the selective and competitive inhibition of Alpha-glucosidase from Aspergillus niger
[13] = Compound was evaluated for the selective and competitive inhibition of Beta-glucosidase from Aspergillus niger
[14] = Compound was evaluated for the selective and competitive inhibition of Beta-glucosidase from Almond at 2.5 mM; NI = No inhibition; parameters: species or system Prunus dulcis
[15] = biological target: T1, Exo-1,4-beta-xylosidase xlnD (Aspergillus niger, UniProt O00089); test: Compound was evaluated for the selective and competitive inhibition of beta-xylosidase from A. pulverulentus; NI = No inhibition at 2.5 mM; parameters: species or system Aspergillus pulverulentus
T1 sequence (O00089 whole entry): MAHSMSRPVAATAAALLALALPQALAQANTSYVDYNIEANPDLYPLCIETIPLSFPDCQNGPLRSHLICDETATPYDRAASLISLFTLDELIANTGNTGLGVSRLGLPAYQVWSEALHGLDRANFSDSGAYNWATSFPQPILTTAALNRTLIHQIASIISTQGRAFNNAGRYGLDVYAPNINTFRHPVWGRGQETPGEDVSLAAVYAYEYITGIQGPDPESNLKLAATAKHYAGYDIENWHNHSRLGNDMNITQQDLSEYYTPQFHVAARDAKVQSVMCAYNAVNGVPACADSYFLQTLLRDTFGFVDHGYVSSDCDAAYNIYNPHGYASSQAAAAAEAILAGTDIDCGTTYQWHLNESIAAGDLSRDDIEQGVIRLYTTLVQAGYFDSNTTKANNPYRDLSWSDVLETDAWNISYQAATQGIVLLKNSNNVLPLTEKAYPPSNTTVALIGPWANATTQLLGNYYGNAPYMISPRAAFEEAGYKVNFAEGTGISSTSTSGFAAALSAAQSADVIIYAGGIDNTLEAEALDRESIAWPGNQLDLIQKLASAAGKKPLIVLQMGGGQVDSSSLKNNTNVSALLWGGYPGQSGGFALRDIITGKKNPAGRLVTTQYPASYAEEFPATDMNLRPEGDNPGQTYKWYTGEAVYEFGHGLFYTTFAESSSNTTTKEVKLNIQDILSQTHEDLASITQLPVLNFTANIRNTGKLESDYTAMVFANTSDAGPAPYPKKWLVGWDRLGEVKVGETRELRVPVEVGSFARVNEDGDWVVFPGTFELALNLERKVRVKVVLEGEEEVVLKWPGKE

[16] = Compound was evaluated for the selective and competitive inhibition of Alpha-glucosidase from Yeast; parameters: species or system Saccharomyces cerevisiae
[17] = Compound was evaluated for the selective and competitive inhibition of Alpha-glucosidase from Bacillus sp.
[18] = Compound was evaluated for the selective and competitive inhibition of Beta-xylosidase from Aspergillus pulverulentus at 2.5 mM; NI = No inhibition
[19] = Compound was evaluated for the selective and competitive inhibition of Beta-galactosidase from Aspergillus oryzae
[20] = Compound was evaluated for the selective and competitive inhibition of Alpha-glucosidase from Yeast at 2.5 mM; NI = No inhibition; parameters: species or system Saccharomyces cerevisiae
[21] = biological target: T1, Exo-1,4-beta-xylosidase xlnD; test: Compound was evaluated for the selective and competitive inhibition of Beta-xylosidase from Aspergillus pulverulentus

Structure (SMILES) | pKa [1] | Ki [2] | Ki [3] | Ki [4] | Ki [8] [µM] | Ki [10] [µM] | Ki [12] [µM] | Ki [13] [µM] | Ki [16] [µM] | Ki [7] | Ki [11] [µM] | other results
NC1OC(CO)C(O)C(O)C1O (centres undefined) | 5.6 |  |  |  |  |  |  |  |  |  |  | 
Br.N=C(Cc1ccccc1)NC1OCC(O)C(O)C1O (centres undefined) |  | Not Active | Not Active | Not Active | 1100 | 13 |  |  |  | Not Active |  | Ki [5]: 11 µM; Ki [6]: No inhibition; Ki [9]: 2.5 µM
Br.N=C(Cc1ccccc1)NC1OC(CO)C(O)C(O)C1O (stereo in doubt; 1a) |  | Not Active |  | Not Active | 73 | 0.13 | > 2500 | 0.094 | 21 | Not Active |  | Ki [17]: > 2500 µM; Ki [18]: Not Active
NC1OCC(O)C(O)C1O (centres undefined) | 5.6 |  |  |  |  |  |  |  |  |  |  | 

Now from value to compound, other results behind:

pKa [1] | Ki [2] | Ki [3] | Ki [4] | Ki [8] [µM] | Ki [10] [µM] | Ki [12] [µM] | Ki [13] [µM] | Ki [16] [µM] | Structure (SMILES) | Ki [7] | Ki [11] [µM] | other results
 | Not Active | Not Active |  |  | 770 | > 2500 | 770 | > 2500 | O=C(Cc1ccccc1)NC1OC(CO)C(O)C(O)C1O (centres undefined) |  | > 2000 | Ki [14]: Not Active; Ki [15]: No inhibition
 |  | Not Active |  | 41 | 390 | 47 | 390 |  | Br.N=C(Cc1ccccc1)NC1OC(CO)C(O)C(O)C1O (stereo in doubt; 1b) |  | 7.8 | Ki [19]: 2.4 µM; Ki [20]: Not Active; Ki [21]: 1000 µM
